The test system of data set [1] is Malassezia furfur. In words: Inhibition of Malassezia furfur growth test (optical density and colony-forming units), Examples 1 and 2. The class given is cell-based. As to conditions: for colony-forming units: 10 μl plated out. Here is the method:
Growth medium: M472-Pitysporum medium according to DSMZ
(§1) The components were sterilized at 121° C., 1 bar superatmospheric pressure for 20 minutes.
2 g/l of olive oil were sterilized by filtration and, after autoclaving, added to the other components.
Since it was a two-phase medium, the complete medium was treated with sonication in order to enlarge the phase boundary.
For agar plates, if appropriate, […] of agar agar were added to the medium.
The growth test was carried out as follows: A shake flask with M472-Pitysporum medium was inoculated with M. furfur and incubated with shaking overnight at 30° C. and 200 rpm.
A 96-well microtiter plate was filled with in each case 100 μl of M472-Pitysporum medium and inoculated with M. furfur suspension of the overnight culture. The M. furfur suspension was adjusted at the start of the experiment to an optical density, measured at 620 nm, of 0.02. The concentrates of the inhibitor solutions were 1 mM in water or DMSO.
The growth of the following batches was compared by measuring the optical density:
M. furfur suspension without the addition of an inhibitor.
This was to exclude that an inhibition is attributable merely to the effect of the DMSO, or a false positive result being observed.
M. furfur suspension and addition of an aqueous P18 solution with a final concentration of 25 μM.
M. furfur suspension and addition of a P18 solution in DMSO with a final concentration of 25 μM.
M. furfur suspension and addition of a zinc pyrithione (ZPT, Sigma-Aldrich) solution in DMSO with a final concentration of 25 μM.
M. furfur suspension and addition of a Ketoconazole (Sigma-Aldrich) solution in DMSO with a final concentration of 25 μM.
The microtiter plate was incubated with shaking at 30° C.
[…] The colony-forming units (CFU) were then determined by plating out 10 μl from each of the suspensions and, after incubation for 6 days, counting the colonies. The CFU was determined in order to exclude an influence of the two-phase medium and also the growth form of M. furfur on the optical density. […] The experiments were carried out at least in triple determinations and independently repeated.
For this, the procedure was as described in Example 1. 1 mM stock solutions of the fusion peptide P18, magainin 2 and cecropin A in DMSO were prepared. The final concentrations of the peptides in the growth experiments were 25 μM. The same amount of DMSO was likewise added to the suspension without inhibitor in order to exclude a growth-inhibiting effect of the DMSO.
The growth of the following mixtures was compared by measuring the optical density:
This was to exclude that an inhibition is attributable merely to the effect of the DMSO.
M. furfur suspension and addition of a magainin 2 solution in DMSO with a final concentration of 25 μM.
M. furfur suspension and addition of a cecropin A solution in DMSO with a final concentration of 25 μM.
M. furfur suspension and addition of a peptide P18 (SEQ ID NO3) solution in DMSO with a final concentration of 25 μM.

Data set [2] deals with Malassezia furfur. In words: Long-term stability of P18 in shampoo basic formulations (40° C.) tested on M. furfur, CFU. The settings on record: stored at 40° C., 0; 12 and 22 days. Format: cell-based. Here is the method: Long-term stability of the peptide P18 (H-KWKLFKKIPKFLHLAKKF-NH2; carboxy-terminal end amidated) in shampoo basic formulations was tested.
The following shampoo basic formulations were prepared:
The components Texapon NSO and Tego Betain L7 were mixed and dissolved. The pH was adjusted to pH 6-7 with NaOH. In the following, 100 mM of aqueous P18 peptide solution were prepared. A corresponding volume of 100 mM P18 peptide solution was added to each formulation in order to obtain peptide P18 final concentrations as indicated in table 15.
The formulations were stored at 40° C.
After 0; 12 and 22 days, the effect of the formulations against M. furfur was analyzed.
Growth medium: M472-Pityrosporum medium according to DSMZ
as §1
2 g/L of olive oil (sterilized by filtration and, after autoclaving, added to the other components) […]
A 96-well microtiter plate was filled with in each case 100 μl of M472-Pityrosporum medium and inoculated with M. furfur suspension of the overnight culture. The M. furfur suspension was adjusted at the start of the experiment to an optical density, measured at 600 nm, of 0.1. […]
After 24 hours, the colony-forming units (CFU) were determined. For this, 1 μl and 10 μl were plated out from each of the suspensions and, after incubation for 6 days, the colonies were counted.

The mark [3] stands for this setting: aqueous solution, 25 μM, incubation time 16 h.
Where [4] appears, read: aqueous solution, 25 μM, incubation time 24 h.
Where [5] appears, read: aqueous solution, 25 μM, incubation time 40 h.
Setting [6] is: solution in DMSO, 25 μM, incubation time 16 h.
Setting [7] is: solution in DMSO, 25 μM, incubation time 24 h.
[8] abbreviates: solution in DMSO, 25 μM, incubation time 40 h.

Ends that are not written are not given here.

For the substance “KWKLFKKIPKFLHLAKKF-NH2 [P18, KWKLFKKIPKFLHLAKKF-NH2]”, the “inhibition of the growth of M. furfur compared to magainin 2 or cecropin A” value in the data set with Malassezia furfur [1] (25 μM in DMSO) is “more effectively than magainin 2 or cecropin A alone”. For the same substance, in the data set on Malassezia furfur [1] (25 μM, observed time period up to 40 hours), the “growth of M. furfur (in words)” value is given as “effectively inhibited”. For the same substance, the optical density is listed as 0 in the data set on Malassezia furfur [1] (aqueous solution, 25 μM, incubation time 0 h); 0 in the data set on Malassezia furfur [1] (setting [3]); 0 in the data set on Malassezia furfur [1] (setting [4]); 0 in the data set with Malassezia furfur [1] (setting [5]); 0 in the data set on Malassezia furfur [1] (solution in DMSO, 25 μM, incubation time 0 h); 0 with Malassezia furfur [1] (setting [6]). Further, the optical density in the data set with Malassezia furfur [1] (setting [7]) and in the data set with Malassezia furfur [1] (setting [8]) was 0 throughout. The colony-forming units in the data set with Malassezia furfur [1] (setting [3]) turned out to be 62; in the data set on Malassezia furfur [1] (setting [4]) it was 41; in the data set on Malassezia furfur [1] (setting [5]) it was 120; with Malassezia furfur [1] (setting [6]), 8; with Malassezia furfur [1] (setting [7]), 0; in the data set with Malassezia furfur [1] (setting [8]), 0. In addition, the CFU in the data set on Malassezia furfur [1] (solution in DMSO, 25 μM, incubation time 64 h) turned out to be 0; in the data set on Malassezia furfur [1] (solution in DMSO, 25 μM, incubation time 72 h), 23. In the data set with Malassezia furfur [2], the “long-term stability in shampoo basic formulations (in words)” value was “stable characteristics”.
